{"source": "patent US20250275924A1", "about": "“Anticholinergic Agents and Muscarinic Agonists for the Treatment of Demodex Related Conditions” (ATTILLAPS HOLDINGS INC., priority 2022, published 2025)", "key": {"[1]": {"test_system": "Demodex mites", "test": "in vitro assay of Demodex mite paralysis and/or killing (survival time)", "experimental": "FIG. 1A-1E is a table summary of an in vitro assay of various agents on Demodex mites survival time and paralysis.\nFIG. 1A-1E is a summary of various agents tested in an in vitro assay of Demodex mite paralysis and/or killing. The efficacy of various agents are evaluated in Demodex characterization and/or survival time experiments, including in terms of LT50 (time at which 50% of Demodex mites are killed) and/or associated time (in hours: min or total minutes)."}, "[2]": {"conditions": "oral paroxetine, rosacea; cited from earlier work"}, "[3]": {"conditions": "grouping of active agents in the summary, data in FIG. 1A-1E (not reproduced)"}}, "note": "Read-outs that look alike come from different tables or passages of the source.", "data": [{"smiles": "Clc1ccc2c(c1)C(N1CCNCC1)=Nc1ccccc1O2", "note": "[amoxapine]", "values": [{"measurement": "paralyzes Demodex mites", "setting": "[1]; [3]", "result": "paralyzes Demodex mites"}]}, {"smiles": "CN1[C@@H]2CC[C@H]1C[C@@H](OC(c1ccccc1)c1ccccc1)C2", "note": "[benztropine]", "values": [{"measurement": "kills Demodex mites", "setting": "[1]; [3]", "result": "kill Demodex mites"}]}, {"smiles": "CC(NC(C)(C)C)C(=O)c1cccc(Cl)c1", "note": "(centres unmarked) [bupropion]", "values": [{"measurement": "kills Demodex mites", "setting": "[1]; [3]", "result": "kill Demodex mites"}]}, {"smiles": "CN(C)CCC(c1ccc(Cl)cc1)c1ccccn1", "note": "(centres unmarked) [chlorpheniramine]", "values": [{"measurement": "paralyzes Demodex mites", "setting": "[1]; [3]", "result": "paralyzes Demodex mites"}]}, {"smiles": "C[N+]12CCC(CC1)C(OC(=O)C(O)(c1ccccc1)c1ccccc1)C2", "note": "(centres unmarked) [clidinium]", "values": [{"measurement": "paralyzes Demodex mites", "setting": "[1]; [3]", "result": "paralyzes Demodex mites"}]}, {"smiles": "COc1ccc2c(c1)[C@]13CCCC[C@@H]1[C@H](C2)N(C)CC3", "note": "[dextromethorphan]", "values": [{"measurement": "kills Demodex mites", "setting": "[1]; [3]", "result": "kill Demodex mites"}]}, {"smiles": "CN(C)CCOC(c1ccccc1)c1ccccc1.Cn1c(=O)c2[nH]c(Cl)nc2n(C)c1=O", "note": "[dimenhydrinate]", "values": [{"measurement": "paralyzes Demodex mites", "setting": "[1]; [3]", "result": "paralyzes Demodex mites"}]}, {"smiles": "CC(C)C(=O)Oc1ccc(CO)cc1[C@H](CCN(C(C)C)C(C)C)c1ccccc1", "note": "[fesoterodine]", "values": [{"measurement": "paralyzes Demodex mites", "setting": "[1]; [3]", "result": "paralyzes Demodex mites"}]}, {"smiles": "COCCCC/C(=N\\OCCN)c1ccc(C(F)(F)F)cc1", "note": "[fluvoxamine]", "values": [{"measurement": "kills Demodex mites", "setting": "[1]; [3]", "result": "kill Demodex mites"}]}, {"smiles": "CN(C)CCCN1c2ccccc2CCc2ccccc21", "note": "[imipramine]", "values": [{"measurement": "kills Demodex mites", "setting": "[1]; [3]", "result": "kill Demodex mites"}]}, {"smiles": "CNC1(C)C2CCC(C2)C1(C)C", "note": "(centres unmarked) [mecamylamine]", "values": [{"measurement": "kills Demodex mites", "setting": "[1]; [3]", "result": "kill Demodex mites"}]}, {"smiles": "CNCCC=C1c2ccccc2CCc2ccccc21", "note": "[nortriptyline]", "values": [{"measurement": "paralyzes Demodex mites", "setting": "[1]; [3]", "result": "paralyzes Demodex mites"}]}, {"smiles": "Fc1ccc([C@@H]2CCNC[C@H]2COc2ccc3c(c2)OCO3)cc1", "note": "[paroxetine]", "values": [{"measurement": "patients indicative of improved clinical symptoms", "setting": "[2]", "result": 42.9, "unit": "%"}, {"measurement": "tolerability", "setting": "[2]", "result": "well-tolerated"}, {"measurement": "onset of Demodex mite paralysis", "setting": "[1]; 1% paroxetine", "result": "within the first hour"}, {"measurement": "period of Demodex mite paralysis", "setting": "[1]; 1% paroxetine", "result": "at least 12 hours"}, {"measurement": "paralyzes Demodex mites", "setting": "[1]; [3]", "result": "paralyzes Demodex mites"}]}, {"smiles": "CC(CN1c2ccccc2Sc2ccccc21)N(C)C", "note": "(centres unmarked) [promethazine]", "values": [{"measurement": "kills Demodex mites", "setting": "[1]; [3]", "result": "kill Demodex mites"}]}, {"smiles": "OCCOCCN1CCN(C2=Nc3ccccc3Sc3ccccc32)CC1", "note": "[quetiapine]", "values": [{"measurement": "paralyzes Demodex mites", "setting": "[1]", "result": "paralyzes Demodex mites"}]}, {"smiles": "OC(CCN1CCCCC1)(c1ccccc1)C1CCCCC1", "note": "(centres unmarked) [trihexyphenidyl]", "values": [{"measurement": "paralyzes Demodex mites", "setting": "[1]; [3]", "result": "paralyzes Demodex mites"}]}]}
